“Also recorded” adds a separate entry of the source.
Experiments:
[1] = test system: NS1 murine myeloma cell line; test: CyTOX (Cy) chromogenic cytotoxicity bioassay; assay type: cell-based
Text: CyTOX (alternatively referred to herein as Cy) is a microtitre plate bioassay use to identify potential antitumour actives. CyTOX is a chromogenic bioassay with broad application to a wide range of tumour and non-tumour cell lines.
CyTOX features a liquid media into which the test compound has been incorporated together with a novel chromogen. As the cells grow and divide the chromogen is metabolised from purple in a single step process to a colourless metabolite. CyTOX was undertaken using NS1 murine myeloma cell line as a guide to mammalian cell toxicity.
Briefly, in CyTOX the cells were applied to the media containing the test chemical and allowed to grow for 72 hours. The assay was monitored at 24, 48 and 72 hours and the active wells identified.

D04 melanoma = test: Growth inhibition of cultured cells; assay type: cell-based; conditions: human melanoma DO4
Experimental: (§1) Briefly, a range of tumour cells including mouse melanoma, human melanoma, mouse squamous cell carcinoma, human breast, human colon, human leukemia and human lung and normal human cells including normal human fibroblasts were seeded at 2-5,000 per microtitre well (96-well plate) in 10% FCS-RPMI 1640 culture medium, treated, and allowed to grow until the controls were nearly confluent (5-6 days). The wells were then washed twice with PBS, fix with ethanol for a minimum of 5 minutes and washed with water. SRB solution (50 μL of 0.4% in 1% acetic acid) was added and left at room temperature for a minimum of 15 minutes. The plate was washed rapidly with tap water and then twice with 1% acetic acid. After addition of 100 μL/well of 10 mM Tris base (unbuffered, pH>9), plates were left for a minimum of 5 minutes, then the absorbance was read at 564 nm on the ELISA reader, with a 3 second prior shaking. After subtraction of a blank (wells with no cells, absorbance typically about 0.04), growth inhibition was calculated as % of the untreated control and plotted against dose.
(§2) Briefly, a suspension of a range of tumour cells including mouse melanoma, human melanoma, mouse squamous cell carcinoma, human breast, human colon, human leukemia and human lung and normal human cells including normal human fibroblasts were seeded into round-bottom microtitre plates in 10% FCS-RPMI 1640 culture medium, treated and allowed to grow for 5-6 days. To measure cell growth, 20 μL of a combined MTS/PMS solution (Promega Cell ProliferationAssay Kit Cat #G5430) was added to each well of the 96 well assay plate. After 1-4 hours the plates were placed in the ELISA plate reader and the absorbance read at 490 nm. After subtraction of a blank (wells with no cells, absorbance typically about 0.4), growth inhibition was calculated as % of the untreated control and plotted against dose.
(§3) For growth inhibition assays, cells (2000-5000/well) were seeded in 96-well plates in duplicate, treated with drug next day and allowed to grow for a further 5-6 days. The plates were then washed in PBS (phosphate buffered saline, pH 7.2), fixed with ethanol and stained by addition of 50 μL 0.4% SRB (sulforhodamine) in 1% acetic acid. The plate was left at room temperature for a minimum of 15 minutes, then washed rapidly with tap water and then twice with 1% acetic acid. After addition of 100 μL/well of 10 mM Tris base (unbuffered, pH>9), plates were left for a minimum of 5 minutes, then the absorbance was read at 564 nm on the ELISA reader, with a 3 second prior shaking. After subtraction of a blank (wells with no cells, typically about 0.04), growth inhibition was calculated as % of the untreated control and plotted against dose.

HOP62 lung = test: Growth inhibition of cultured cells; assay type: cell-based; conditions: human lung H0P62
Experimental: as §1, §2, §3

human breast MCF-7 = test: Growth inhibition of cultured cells; assay type: cell-based; conditions: human breast CF-7
Experimental: as §1, §2, §3

human colon Colo205 = test: Growth inhibition of cultured cells; assay type: cell-based
Experimental: as §1, §2, §3

human leukemia K562 = test: Growth inhibition of cultured cells; assay type: cell-based
Experimental: as §1, §2, §3

human leukemia U937 = test: Growth inhibition of cultured cells; assay type: cell-based
Experimental: as §1, §2, §3

human lung A549 = test: Growth inhibition of cultured cells; assay type: cell-based
Experimental: as §1, §2, §3

human melanoma MM96L = test: Growth inhibition of cultured cells; assay type: cell-based
Experimental: as §1, §2, §3

[2] = test system: normal human fibroblasts (NFF); test: Growth inhibition of cultured cells; assay type: cell-based
Experimental: as §1, §2, §3

Human melanoma SKMel-5 = test: Growth inhibition of cultured cells; assay type: cell-based
Experimental: as §1, §2

[3] = test system: Mouse squamous cell carcinoma K-2; test: Growth inhibition of cultured cells; assay type: cell-based
Experimental: as §1, §2

mouse melanoma B16 = test: Growth inhibition of cultured cells; assay type: cell-based
Experimental: as §1, §2

PKC = PKC activation in cultured tumour cells (scattering and growth inhibition of MCF7); assay type: cell-based, human; conditions: defined by scattering and growth inhibition of MCF7 breast cancer cells
MM96L cell line = test: Changes in morphology of cultured cells; assay type: cell-based, human
[4] = test system: murine B-cell lymphoma line A20; test: Systemic (intraperitoneal) treatment of A20 lymphoma in SCID-NOD mice; assay type: in vivo; conditions: 5 doses of 20-25 μg from day 18, one mouse
Experimental: Animal experiments were conducted under Queensland Institute of Medical Research (QIMR) Animal Ethics Committee approvals. The B16 mouse melanoma model was obtained by injecting 0.5 million B16 mouse melanoma cells subcutaneously into each of the 2 flanks of a male C57BL/6 mouse. The human tumour xenografts were obtained by injecting 2 million of the respective tumour cell line into each of 4 sites on the flanks of male nude mice (BALB/c background). EBI-46 was applied: (a) topically by dilution of a concentrated solution in acetone into an isopropanol gel, once a day for 3 days; (b) intralesionally by injection into the tumour of drug dissolved in 25% propylene glycol-0.1 M saline, (c) systemically by injection intraperitoneally in 25% propylene glycol in 0.1 M saline. Tumour size was measured with electronic callipers in mm and converted to volume (cubic mm) using the formula: Tumour volume=length×breadth×breadth/2. Results
The murine B-cell lymphoma line A20 was used as an experimental model because it has been reported to grow well in mice and closely models the human situation.
SCID-NOD mice (BALB/c background) were shaved and 10E7 A20 cells injected subcutaneously (2 sites per mouse). The tumours tended to grow in a flat, diffuse manner and became raised and measurable at the 10E7 sites only after about 15 days. […]

Stability = assay type: physicochemical
Text: This instability was observed upon nitrogen evaporation but not while in acetonitrile/water solution at room temperature or on vacuum evaporation. To avoid decomposition the equivalent four bands of active metabolites from the second preparative HPLC were individually back extracted in the ethyl acetate and evaporated under vacuum. Analytical HPLC of these samples confirmed minimal decomposition.
[…] The structure has no readily reactive groups which might otherwise confer instability.

With `C/C=C(\C)C(=O)OC1C(C)C2(O)C(C3OC3(CO)C(O)C3(O)C(=O)C(C)=CC32)C2C(C)(C)C12OC(=O)C(C)CC` (centres unmarked) [EBI-46, 12-tigloyl-13-(2-methylbutanoyl)-6,7-epoxy-4,5,9,12,13,20-hexahydroxy-1-tiglian-3-one] the “Cy Titre” value [1] was 8, the “Cy LD99” value ([1]; Table 6a, last well with activity, real value may be lower) was 7.8 pg/mL and the “Concentration of EBI-46 at which growth inhibition was observed” value (D04 melanoma) was less than 100 ng/mL. For the same compound, the “Concentration of EBI-46 at which growth inhibition was observed” value (HOP62 lung) was less than 100 ng/mL, the “Concentration of EBI-46 at which growth inhibition was observed” value (human breast MCF-7) was less than 100 ng/mL and the “Concentration of EBI-46 at which growth inhibition was observed” value (human colon Colo205) was less than 100 ng/mL. The “Concentration of EBI-46 at which growth inhibition was observed” value (human leukemia K562) was less than 100 ng/mL, the “Concentration of EBI-46 at which growth inhibition was observed” value (human leukemia U937) was less than 100 ng/mL and the “Concentration of EBI-46 at which growth inhibition was observed” value (human lung A549) was less than 100 ng/mL. For the same compound, the “Concentration of EBI-46 at which growth inhibition was observed” value (human melanoma MM96L) was “=/<2 μg/mL”, the “Concentration of EBI-46 at which growth inhibition was observed” value [2] was “None observed at 10 μg/mL” and the “Concentration of EBI-46 at which growth inhibition was observed” value (Human melanoma SKMel-5) was less than 100 ng/mL. The “Concentration of EBI-46 at which growth inhibition was observed” value [3] was less than 100 ng/mL, the “Concentration of EBI-46 at which growth inhibition was observed” value (mouse melanoma B16) was “=/<2 μg/mL” and the PKC activity (PKC) was “yes”. For the same compound, the “change in morphology of MM96L cells” value (MM96L cell line) was “characteristic change to bipolar morphology; also recorded: extreme bipolar morphology”, the tumour growth [4] was “strongly inhibited” and the stability of solution (Stability; 25% propylene glycol-saline at 4° C.) was “stable for weeks”. For the same compound, the “stability by HPLC” value (Stability; PEG 400 containing 10% ethanol held at 37° C.) was “confirmed” and the stability of solutions (Stability; in ethanol, 4° C. for 4 weeks) was “retain bioactivity”.

— patent US10980769B2, “Tiglien-3-one derivatives” (QBIOTICS PTY LTD, priority 2005, dated 2021)
